Assay results taken from US7417062B2, “Substituted arylamides” (ChemoCentryx, Inc., priority 2004, dated 2008).

The compounds below were run against T1, CCXCKR2 receptor (Homo sapiens, UniProt P25106) (assay: Displacement of 125I-labeled SDF-1 from the CCXCKR2 receptor (radioligand binding, determination of IC50 values)). Conditions: MCF-7 and/or MDA-MB-435S cells expressing CCXCKR2; 125I SDF-1; 3 hr at 4° C.; read-out: Activity (ability to displace 125I SDF-1 from CCXCKR2).
T1 construct: host or cells: MCF-7 (endogenous) and/or MDA-MB-435S transfected with hRDC1 in pcDNA3.1(+)
Method in brief: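 Whole-cell filtration binding on MCF-7 and/or MDA-MB-435S cells stably transfected with human CCXCKR2, with compounds at multiple concentrations competing with 125I-SDF-1. Incubation was 3 hr at 4° C in HEPES buffer (CaCl2, MgCl2, 0.2% BSA, pH 7.1). Bound radioactivity was collected on PEI-treated GF/B filters and counted by scintillation to give IC50.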

T1 sequence (P25106 whole entry): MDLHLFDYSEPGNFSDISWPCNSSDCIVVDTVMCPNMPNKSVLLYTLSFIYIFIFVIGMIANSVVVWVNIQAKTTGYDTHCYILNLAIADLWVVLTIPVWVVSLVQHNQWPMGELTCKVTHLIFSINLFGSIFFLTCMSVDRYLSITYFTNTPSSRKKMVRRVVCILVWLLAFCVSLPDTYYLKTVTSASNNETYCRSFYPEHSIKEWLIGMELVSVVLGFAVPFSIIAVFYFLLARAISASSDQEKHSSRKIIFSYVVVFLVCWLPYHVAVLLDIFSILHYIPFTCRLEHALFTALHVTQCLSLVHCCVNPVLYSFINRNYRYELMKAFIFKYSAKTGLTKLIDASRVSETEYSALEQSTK

IC50 | SMILES
< 10000 nM | COc1cc(C(=O)N(Cc2cnc3ccccc3c2)C[C@@H]2CCCN2C2CCC2)cc2c1OC(C)(C)O2
< 2000 nM | COc1cc(C(=O)N(Cc2cnc3ccccc3n2)C[C@@H]2CCCN2C2CCC2)cc2c1OC(C)(C)O2 [Example 67, 7-Methoxy-2,2-dimethyl-benzo[1,3]dioxole-5-carboxylic acid ((S)-1-cyclobutyl-pyrrolidin-2-ylmethyl)-quinoxalin-2-ylmethyl-amide]
< 500 nM | COc1cc(C(=O)N(Cc2cc3ccccc3s2)C[C@@H]2CCCN2C2CCC2)cc2c1OC(C)(C)O2 [Example 60, 7-Methoxy-2,2-dimethyl-benzo[1,3]dioxole-5-carboxylic acid benzo[b]thiophen-2-ylmethyl-((S)-1-cyclobutyl-pyrrolidin-2-ylmethyl)-amide]

Second part, the compound before the results:

SMILES | IC50
COc1cc(C(=O)N(Cc2ccc3cc(F)ccc3n2)C[C@@H]2C[C@@H]3CCCC[C@@H]3N2)cc2c1OC(C)(C)O2 [Example 72, 7-Methoxy-2,2-dimethyl-benzo[1,3]dioxole-5-carboxylic acid (6-fluoro-quinolin-2-ylmethyl)-[(2S,3aS,7aS)-1-(octahydro-indol-2-yl)methyl]-amide] | < 500 nM
COc1cc(C(=O)N(CCC2CCCN2C)Cc2nc3ccccc3n2C)cc(OC)c1OC (stereo not shown) [Example 14, 3,4,5-Trimethoxy-N-(1-methyl-1H-benzoimidazol-2-ylmethyl)-N-[2-(1-methyl-pyrrolidin-2-yl)-ethyl]-benzamide] | < 10000 nM
COc1cc(C(=O)N(C[C@@H]2C[C@@H]3CCCC[C@@H]3N2)C(C)c2cc3ccccc3cn2)cc2c1OC(C)(C)O2 (stereo partly drawn) [Example 66, 7-Methoxy-2,2-dimethyl-benzo[1,3]dioxole-5-carboxylic acid (1-isoquinolin-3-yl-ethyl)-[(2S,3aS,7aS)-1-(octahydro-indol-2-yl)methyl]-amide] | < 500 nM
COc1cc(C(=O)N(CCC2CCCN2C)Cc2cc3ccccc3s2)cc(OC)c1OC (stereo not shown) [Example 8, N-Benzo[b]thiophen-2-ylmethyl-3,4,5-trimethoxy-N-[2-(1-methyl-pyrrolidin-2-yl)-ethyl]-benzamide] | < 500 nM
